How the values were obtained:
[1] = target: T1, STAT5A (Homo sapiens, UniProt P42229); experiment: Fluorescence polarization (FP) binding assay, STAT5A; details: FP competition, 5 nM fluorescein-labeled tracer, 200 nM protein, PBS pH7.4
T1 sequence (P42229 1-794): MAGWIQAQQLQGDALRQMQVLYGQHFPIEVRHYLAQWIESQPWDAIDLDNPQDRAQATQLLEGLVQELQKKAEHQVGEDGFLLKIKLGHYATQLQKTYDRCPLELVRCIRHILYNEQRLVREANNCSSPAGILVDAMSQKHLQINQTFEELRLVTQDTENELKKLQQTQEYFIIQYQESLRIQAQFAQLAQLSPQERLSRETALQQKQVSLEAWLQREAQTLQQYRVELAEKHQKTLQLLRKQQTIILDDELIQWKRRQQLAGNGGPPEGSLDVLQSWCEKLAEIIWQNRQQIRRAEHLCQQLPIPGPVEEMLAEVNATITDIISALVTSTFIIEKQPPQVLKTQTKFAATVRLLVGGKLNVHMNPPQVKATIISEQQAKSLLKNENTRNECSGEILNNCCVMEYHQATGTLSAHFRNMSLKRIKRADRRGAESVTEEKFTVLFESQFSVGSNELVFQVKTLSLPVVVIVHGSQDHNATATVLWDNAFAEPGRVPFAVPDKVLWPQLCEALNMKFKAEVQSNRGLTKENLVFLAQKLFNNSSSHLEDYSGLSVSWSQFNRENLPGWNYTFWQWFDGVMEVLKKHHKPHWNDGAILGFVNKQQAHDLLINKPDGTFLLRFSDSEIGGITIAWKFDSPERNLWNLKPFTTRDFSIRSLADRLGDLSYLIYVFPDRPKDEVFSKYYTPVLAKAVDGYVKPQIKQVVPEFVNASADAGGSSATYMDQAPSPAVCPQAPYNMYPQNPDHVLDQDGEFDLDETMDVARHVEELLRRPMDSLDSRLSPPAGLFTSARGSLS
Method in brief: (§1)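 Fluorescein-labelled tracer (5 nM) with 200 nM STAT5 and/or STAT6 protein in PBS pH 7.4, 0.01% BGG, 0.01% Tween-20, 2 mM DTT. Mixed 15 min, then equilibrated 1 h at room temperature; read by fluorescence polarization, constants from nonlinear curve fitting.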

[2] = target: T2, STAT6 protein (Homo sapiens, UniProt P42226); experiment: Fluorescence polarization (FP) binding assay, STAT6; details: FP competition, 5 nM fluorescein-labeled tracer, 200 nM protein, PBS pH7.4; read-out: Binding STAT6
T2 sequence (P42226 1-847): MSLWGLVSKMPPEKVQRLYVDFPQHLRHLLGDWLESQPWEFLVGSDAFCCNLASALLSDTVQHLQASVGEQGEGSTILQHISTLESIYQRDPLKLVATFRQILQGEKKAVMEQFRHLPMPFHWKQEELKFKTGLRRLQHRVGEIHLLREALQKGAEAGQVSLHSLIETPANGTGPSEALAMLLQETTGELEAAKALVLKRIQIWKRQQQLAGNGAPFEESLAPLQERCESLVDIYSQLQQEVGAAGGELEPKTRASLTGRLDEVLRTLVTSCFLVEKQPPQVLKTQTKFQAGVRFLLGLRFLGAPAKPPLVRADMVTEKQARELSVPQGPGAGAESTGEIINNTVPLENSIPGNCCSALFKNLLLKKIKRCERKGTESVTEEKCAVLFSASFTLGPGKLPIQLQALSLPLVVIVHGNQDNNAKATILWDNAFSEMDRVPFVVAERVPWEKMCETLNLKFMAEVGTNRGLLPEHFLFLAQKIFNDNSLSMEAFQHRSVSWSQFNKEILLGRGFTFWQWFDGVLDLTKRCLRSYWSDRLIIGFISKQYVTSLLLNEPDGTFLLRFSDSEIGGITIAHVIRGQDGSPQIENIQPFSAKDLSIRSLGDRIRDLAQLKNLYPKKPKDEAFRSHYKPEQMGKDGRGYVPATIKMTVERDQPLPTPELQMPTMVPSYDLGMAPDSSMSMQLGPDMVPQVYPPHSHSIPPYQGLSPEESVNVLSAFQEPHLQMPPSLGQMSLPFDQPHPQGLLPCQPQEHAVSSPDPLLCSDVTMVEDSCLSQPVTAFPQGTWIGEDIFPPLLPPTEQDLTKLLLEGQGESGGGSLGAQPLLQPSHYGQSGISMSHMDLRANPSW
Method in brief: as §1

Row | Ki [1] [µM] | Ki [2] [µM] | Compound
1 | > 10 | > 10 | CCCCC(=O)N1CC[C@H]2CCN(C(=O)[C@@H]3CCCN3C(=O)[C@@H](NC(=O)c3cc4cc(C(F)(F)P(=O)(O)O)ccc4s3)C(C)(C)C)[C@H]2C1 [Compound 91, ((2-(((S)-3,3-dimethyl-1-oxo-1-((S)-2-((3aS,7aR)-6-pentanoyloctahydro-1H-pyrrolo[2,3-c]pyridine-1-carbonyl)pyrrolidin-1-yl)butan-2-yl)carbamoyl)benzo[b]thiophen-5-yl)difluoromethyl)phosphonic acid]
2 | 1 to 10 | 1 to 10 | O=C(N[C@@H](CC1CCCCC1)C(=O)N1CCC[C@H]1C(=O)N1CCc2ccccc2C1)c1cc2cc(C(F)(F)P(=O)(O)O)ccc2[nH]1 [Compound 23, ((2-(((S)-3-cyclohexyl-1-oxo-1-((S)-2-(1,2,3,4-tetrahydroisoquinoline-2-carbonyl)pyrrolidin-1-yl)propan-2-yl)carbamoyl)-1H-indol-5-yl)difluoromethyl)phosphonic acid]
3 | 1 to 10 | 0.1 to 1 | Cc1ccccc1C1CN(C(=O)[C@@H]2CCCN2C(=O)[C@@H](NC(=O)c2cc3cc(C(F)(F)P(=O)(O)O)ccc3s2)C(C)(C)C)CCO1 (stereo partly drawn) [Compound 106, ((2-(((2S)-3,3-dimethyl-1-oxo-1-((2S)-2-(2-(o-tolyl)morpholine-4-carbonyl)pyrrolidin-1-yl)butan-2-yl)carbamoyl)benzo[b]thiophen-5-yl)difluoromethyl)phosphonic acid]
4 | 1 to 10 | 0.1 to 1 | CC(C)(C)[C@H](NC(=O)c1cc2cc(C(F)(F)P(=O)(O)O)ccc2s1)C(=O)N1CCC[C@H]1C(=O)N1CCOC(c2cccc3ccccc23)C1 (stereo partly drawn) [Compound 129, ((2-(((2S)-3,3-dimethyl-1-((2S)-2-(2-(naphthalen-1-yl)morpholine-4-carbonyl)pyrrolidin-1-yl)-1-oxobutan-2-yl)carbamoyl)benzo[b]thiophen-5-yl)difluoromethyl)phosphonic acid]
5 | 1 to 10 | 0.1 to 1 | CC(C)(C)[C@H](NC(=O)c1cc2cc(C(F)(F)P(=O)(O)O)ccc2s1)C(=O)N1Cc2ccccc2CC1C(=O)N1CCO[C@H](c2ccccc2)C1 (stereo partly drawn) [Compound 189, ((2-(((2S)-3,3-dimethyl-1-oxo-1-(3-((R)-2-phenylmorpholine-4-carbonyl)-3,4-dihydroisoquinolin-2(1H)-yl)butan-2-yl)carbamoyl)benzo[b]thiophen-5-yl)difluoromethyl)phosphonic acid]
6 | 1 to 10 | > 10 | CC(C)(C)[C@H](NC(=O)c1cc2cc(C(F)(F)P(=O)(O)O)ccc2s1)C(=O)N1CCCCC[C@H]1C(=O)N1CC[C@@H](c2ccccc2)C1 [Compound 186, ((2-(((S)-3,3-dimethyl-1-oxo-1-((S)-2-((S)-3-phenylpyrrolidine-1-carbonyl)azepan-1-yl)butan-2-yl)carbamoyl)benzo[b]thiophen-5-yl)difluoromethyl)phosphonic acid]
7 | > 10 | 1 to 10 | CC(C)(C)[C@H](NC(=O)c1cc2cc(C(F)(F)P(=O)(O)O)ccc2s1)C(=O)N1CCC[C@H]1C(=O)Nc1nc2ccccc2s1 [Compound 213, ((2-(((S)-1-((S)-2-(benzo[d]thiazol-2-ylcarbamoyl)pyrrolidin-1-yl)-3,3-dimethyl-1-oxobutan-2-yl)carbamoyl)benzo[b]thiophen-5-yl)difluoromethyl)phosphonic acid]
8 | > 10 | > 10 | CC(C)(C)[C@H](NC(=O)c1cc2cc(C(F)(F)P(=O)(O)O)ccc2s1)C(=O)N1CCC[C@H]1C(=O)N1CC[C@H]2CCN(C(=O)c3ccc(F)cc3)[C@H]2C1 [Compound 83, (difluoro(2-(((S)-1-((S)-2-((3aS,7aR)-1-(4-fluorobenzoyl)octahydro-1H-pyrrolo[2,3-c]pyridine-6-carbonyl)pyrrolidin-1-yl)-3,3-dimethyl-1-oxobutan-2-yl)carbamoyl)benzo[b]thiophen-5-yl)methyl)phosphonic acid]
9 | 1 to 10 | 1 to 10 | CC(C)(C)[C@H](NC(=O)c1cc2cc(C(F)(F)P(=O)(O)O)ccc2s1)C(=O)N1CCC[C@H]1C(=O)Nc1nc(Cc2ccccc2)cs1 [Compound 212, ((2-(((S)-1-((S)-2-((4-benzylthiazol-2-yl)carbamoyl)pyrrolidin-1-yl)-3,3-dimethyl-1-oxobutan-2-yl)carbamoyl)benzo[b]thiophen-5-yl)difluoromethyl)phosphonic acid]
10 | > 10 | 0.1 to 1 | C#CC[C@H](NC(=O)c1cc2cc(C(F)(F)P(=O)(O)O)ccc2s1)C(=O)N1CCC[C@H]1C(=O)N1CCO[C@H](c2ccccc2)C1 [Compound 147, (difluoro(2-(((S)-1-oxo-1-((S)-2-((R)-2-phenylmorpholine-4-carbonyl)pyrrolidin-1-yl)pent-4-yn-2-yl)carbamoyl)benzo[b]thiophen-5-yl)methyl)phosphonic acid]
11 | > 10 | 1 to 10 | CN(C)C(=O)CCN(C(=O)[C@@H]1CCCN1C(=O)[C@@H](NC(=O)c1cc2cc(C(F)(F)P(=O)(O)O)ccc2s1)C(C)(C)C)c1cccc(-c2nccs2)c1 [Compound 320, ((2-(((S)-1-((S)-2-((3-(dimethylamino)-3-oxopropyl)(3-(thiazol-2-yl)phenyl)carbamoyl)pyrrolidin-1-yl)-3,3-dimethyl-1-oxobutan-2-yl)carbamoyl)benzo[b]thiophen-5-yl)difluoromethyl)phosphonic acid]
12 | > 10 | 1 to 10 | CCC(CC)[C@H](NC(=O)c1cc2cc(C(F)(F)P(=O)(O)O)ccc2s1)C(=O)N1CCC[C@H]1C(=O)N1CCO[C@@H](c2ccccc2)C1 [Compound 150, ((2-(((S)-3-ethyl-1-oxo-1-((S)-2-((S)-2-phenylmorpholine-4-carbonyl)pyrrolidin-1-yl)pentan-2-yl)carbamoyl)benzo[b]thiophen-5-yl)difluoromethyl)phosphonic acid]
13 | > 10 | > 10 | O=C(N[C@@H](CC1=CCN(Cc2ccccc2)CC1)C(=O)N1CCC[C@H]1C(=O)N1CCc2ccccc2C1)c1cc2cc(C(F)(F)P(=O)(O)O)ccc2[nH]1 [Compound 35, ((2-(((S)-3-(1-benzyl-1,2,3,6-tetrahydropyridin-4-yl)-1-oxo-1-((S)-2-(1,2,3,4-tetrahydroisoquinoline-2-carbonyl)pyrrolidin-1-yl)propan-2-yl)carbamoyl)-1H-indol-5-yl)difluoromethyl)phosphonic acid]
14 | > 10 | 1 to 10 | CC(C)(C)[C@H](NC(=O)c1cc2cc(C(F)(F)P(=O)(O)O)ccc2s1)C(=O)N1CCC[C@H]1C(=O)N[C@@H]1CCc2ccccc2C1 [Compound 215, ((2-(((S)-3,3-dimethyl-1-oxo-1-((S)-2-(((R)-1,2,3,4-tetrahydronaphthalen-2-yl)carbamoyl)pyrrolidin-1-yl)butan-2-yl)carbamoyl)benzo[b]thiophen-5-yl)difluoromethyl)phosphonic acid]
15 | > 10 | > 10 | CC(=O)N1CC[C@H]2CCN(C(=O)[C@@H]3CCCN3C(=O)[C@@H](NC(=O)c3cc4cc(C(F)(F)P(=O)(O)O)ccc4s3)C(C)(C)C)[C@H]2C1 [Compound 90, ((2-(((S)-1-((S)-2-((3aS,7aR)-6-acetyloctahydro-1H-pyrrolo[2,3-c]pyridine-1-carbonyl)pyrrolidin-1-yl)-3,3-dimethyl-1-oxobutan-2-yl)carbamoyl)benzo[b]thiophen-5-yl)difluoromethyl)phosphonic acid]
